One block for each compound: values may come before it.
How the values were obtained:
[1] = Aqueous solubility of the quinolone and its crystal forms; assay type: physicochemical; details: for solubility of crystal form: depending upon the crystal form
Excerpt: The compounds disclosed in U.S. Pat. No. 5,563,155, ('155) are incorporated by reference here to fully disclose and enable this invention. The following compounds of the '155 patent are pointed out and particularly incorporated here. […] More particularly disclosed by incorporation by reference are those compounds of '155, in claim 1, where R2 is H and where R or R' is H. The quinolone where R2 is H and where R or R' is H can be combined with Mg2+ ions to produce a soluble complex having reduced injection site irritation. More preferred are the compounds of '155, in claim 1, where R2 is H and where R or R' is H, and where R3 is H and X is C--O--CH3. The esters of these compounds are also disclosed herein, the carboxy esters of 1-8 carbon groups are disclosed here, including all isomeric combinations (CH3, C2 H5, C3 H7, C4 H9, C5 H11, C6 H13, C7 H15, C8 H17 -- both straight and branched chains) and especially preferred are the carboxy esters of 1-4 carbon groups such as in U.S. Pat. No. 5,563,155, claim 1, where R2 is an alkyl of 1-4 carbon atoms or a cation. Even more preferred are the compounds of claim 2, most particularly the compound of claim 8 or 3R,1S-1-cyclopropyl-7-(3-(1-(methylamino)ethyl)-1-pyrrolidinyl)-6-fluoro-1,4-dihydro-8-methoxy-4-oxo-3-quinolinecarboxylic acid. […] Also, particular attention is directed to the descriptions in the specification of the '155 patent that correspond or are relevant to those claims and compounds described here.
The quinolones mentioned above can exist in different forms, the different forms having different solubilities. […] Even though it is the less soluble crystal form, Form III is very suitable as the quinolone that may be combined with Mg2+ in this invention. See, WO96/16055, incorporated by reference.
The compounds that may be made into solutions of this type are those compounds disclosed in Formula 1 and in U.S. Pat. No. 5,563,155, incorporated herein by reference and particularly 3R,1S-1-cyclopropyl-7-(3-(1-(methylamino)ethyl)-1-pyrrolidinyl)-6-fluoro-1,4-dihydro-8-methoxy-4-oxo-3-quinolinecarboxylic acid. […]

[2] = Serum depletion profile of 14C-quinolone with and without magnesium; assay type: in vivo, Holstein calves; details: single subcutaneous, approximately 10 mg/kg
Description: (§1) Experiment 7. The determination of preliminary residue depletion profile in calves following subcutaneous administration of 14C-quinolone with and without magnesium.
(§2) Formulations: Radiolabeled quinolone was combined with unlabeled quinolone to yield solutions containing quinolone at 50 mg/mL with a specific activity of 2.25 uCi/mg. Solution 1: 4.92 g of unlabeled quinolone and 11.26 mCi 14C-quinolone were dissolved in 0.16 M HCl, the solution was titrated to pH 4-5 with 1 M NaOH and diluted with deionized water to a final volume of 100 mL. Solution 2: 4.92 g of unlabeled quinolone and 11.26 mCi 14C-quinolone were dissolved in 0.24 M MgCl2 --6H2 O and diluted to 100 mL with deionized water.
(§3) Treatment Groups: Ten (male and female) Holstein calves approximately 50-85 kg were used. Each animal was injected with a single subcutaneous injection (approximately 0.2 mL dose solution/kg body weight). The dose level was approximately 10 mg/kg (22.5 uCi/kg) body weight. Whole blood samples (approximately 50 mL) were collected from each animal at 0.5, 1, 1.5, 2, 2.5, 3, 6, 12, 24, and 48 h after dosing or until euthanasia. Following euthanasia, fat, muscle, lung, kidney, liver and injection site tissue samples (approximately 500 g) were collected. Blood and tissue samples were combusted and drug residue determined by liquid scintillation counting.

[3] = Total 14C-quinolone tissue residue depletion; assay type: in vivo, Holstein calves; details: for Total 14C-quinolone residues at injection site / Total 14C-quinolone residues in fat / Total 14C-quinolone residues in kidneys / Total 14C-quinolone residues in liver / Total 14C-quinolone residues in lungs / Total 14C-quinolone residues in muscle: 10 mg/kg
Description: as §1, §2, §3

[4] = Injection site reaction after subcutaneous injection in animals (general statement); assay type: in vivo; details: without Mg2+
Excerpt: Unfortunately these compounds also produce a severe adverse reaction at the injection site when injected subcutaneously in animals.

solubility of crystal form [1]: about 10.8 mg/ml
SMILES: CN[C@@H](C)[C@@H]1CCN(c2c(F)cc3c(=O)c(C(=O)O)cn(C4CC4)c3c2OC)C1 [Form 1, 3R,1S-1-cyclopropyl-7-(3-(1-(methylamino)ethyl)-1-pyrrolidinyl)-6-fluoro-1,4-dihydro-8-methoxy-4-oxo-3-quinolinecarboxylic acid]

estimated intrinsic solubility ([1]; 25° C.): about 2.2 mg/ml
serum concentration at 1 hour ([2]; 1 hour): 30400 ng/mL
serum concentration after 48 hours ([2]; 48 hours): 1000 ng/mL
Total 14C-quinolone residues at injection site ([3]; 3 hr): 10,482 μg/g
Total 14C-quinolone residues in fat ([3]; 3 hr): 45.4 µg/g
Total 14C-quinolone residues in kidneys ([3]; 3 hr): 353.2 µg/g
Total 14C-quinolone residues in liver ([3]; 3 hr): 215.5 µg/g
Total 14C-quinolone residues in lungs ([3]; 3 hr): 146.8 µg/g
Total 14C-quinolone residues in muscle ([3]; 3 hr): 50.1 µg/g
Total 14C-quinolone residues at injection site ([3]; 6 hr): 12,382 μg/g
Total 14C-quinolone residues in fat ([3]; 6 hr): 16.8 µg/g
Total 14C-quinolone residues in kidneys ([3]; 6 hr): 234.1 µg/g
Total 14C-quinolone residues in liver ([3]; 6 hr): 147.2 µg/g
Total 14C-quinolone residues in lungs ([3]; 6 hr): 96.6 µg/g
Total 14C-quinolone residues in muscle ([3]; 6 hr): 38.4 µg/g
Total 14C-quinolone residues at injection site ([3]; 12 hr): 1,737 μg/g
Total 14C-quinolone residues in fat ([3]; 12 hr): 7.8 µg/g
Total 14C-quinolone residues in kidneys ([3]; 12 hr): 121.3 µg/g
Total 14C-quinolone residues in liver ([3]; 12 hr): 110.9 µg/g
Total 14C-quinolone residues in lungs ([3]; 12 hr): 53.1 µg/g
Total 14C-quinolone residues in muscle ([3]; 12 hr): 24.3 µg/g
Total 14C-quinolone residues at injection site ([3]; 24 hr): 932.5 µg/g
Total 14C-quinolone residues in fat ([3]; 24 hr): 13.9 µg/g
Total 14C-quinolone residues in kidneys ([3]; 24 hr): 90.3 µg/g
Total 14C-quinolone residues in liver ([3]; 24 hr): 59.5 µg/g
Total 14C-quinolone residues in lungs ([3]; 24 hr): 27.6 µg/g
Total 14C-quinolone residues in muscle ([3]; 24 hr): 9.4 µg/g
Total 14C-quinolone residues at injection site ([3]; 48 hr): 225.7 µg/g
Total 14C-quinolone residues in fat ([3]; 48 hr): 1.7 µg/g
Total 14C-quinolone residues in kidneys ([3]; 48 hr): 15.0 µg/g
Total 14C-quinolone residues in liver ([3]; 48 hr): 13.4 µg/g
Total 14C-quinolone residues in lungs ([3]; 48 hr): 4.8 µg/g
Total 14C-quinolone residues in muscle ([3]; 48 hr): 1.4 µg/g
injection site concentration of QFB ([3]; single subcutaneous, approximately 10 mg/kg): 10,480 ug/g
SMILES: CN[C@@H](C)[C@@H]1CCN(c2c(F)cc3c(=O)c(C(=O)O)cn(C4CC4)c3c2OC)C1 [QFB, [S-(R*,S*)]-1-Cyclopropyl-6-fluoro-1,4-dihydro-8-methoxy-7-[3-[1-(methylamino)ethyl]-1-pyrrolidinyl]-4-oxo-3-quinolinecarboxylic acid]
adverse reaction at injection site [4]: dramatic swelling, discoloration, internal and external lesions and even necrosis

solubility of crystal form [1]: about 2.2 mg/ml
SMILES: CN[C@@H](C)[C@@H]1CCN(c2c(F)cc3c(=O)c(C(=O)O)cn(C4CC4)c3c2OC)C1 [Form 3, 3R,1S-1-cyclopropyl-7-(3-(1-(methylamino)ethyl)-1-pyrrolidinyl)-6-fluoro-1,4-dihydro-8-methoxy-4-oxo-3-quinolinecarboxylic acid]

Source: patent US6288080A, “Magnesium quinolone antibiotics” (priority 1998, dated 2001)
